Reference: patent US10501492B2, “Antibiotic compounds” (priority 2009, dated 2019)

Columns and labels:
E. faecium = experiment: MIC determination, Macro-broth dilution method (NCCLS); assay type: cell-based, Enterococcus faecium; conditions: for Minimal Inhibitory Concentration: E. faecium, R-2 (VRE) (Table 5)
Description: (§1) The in-vitro potency was established by minimum inhibitory concentration (MIC) determinations of the compounds of Formula I(a) and Formula I(b) against bacterial strains, by using the Macro-broth dilution method as per National Committee for Clinical Laboratory Standards (2000) guidelines (Methods for Dilution Antimicrobial Susceptibility Tests for Bacteria that Grow Aerobically—Fifth Edition: Approved Standard M7-A5. NCCLS, Wayne, Pa., USA). Mueller-Hinton broth was used as nutrient medium for the assay, unless stated otherwise. PM181104 (PCT publication no. WO2007119201) was used as known standard in all in-vitro experiments. For preparation of the stock solution the compounds of Formula I(a) and Formula I(b) were dissolved in chloroform (5% of the total required volume) and diluted using methanol (95% of the total required volume).

[1] = Solubility (physical properties)
M. tuberculosis H37Rv = experiment: Antimycobacterial activity, Luciferase reporter phage assay; assay type: cell-based, Mycobacterium tuberculosis; conditions: 72 hours
S. aureus = experiment: MIC determination, Macro-broth dilution method (NCCLS); assay type: cell-based, Staphylococcus aureus
Description: as §1

[2] = test system: Bacillus megaterium FH1127 (124); experiment: as above; assay type: cell-based
Description: as §1

Bacillus cereus (121) = experiment: as above; assay type: cell-based
Description: as §1

[3] = test system: Bacillus subtilis ATCC 6633 (123); experiment: as above; assay type: cell-based
Description: as §1

S. epidermidis = experiment: as above; assay type: cell-based, Staphylococcus epidermidis
Description: as §1

[4] = in chloroform, ethyl acetate, methanol
[5] = S. aureus 209P (MSSA) (Table 5)
[6] = S. aureus E710, (MRSA) (Table 5)

## C=C(NC(=O)c1csc(C2=NC3c4csc(n4)C4NC(=O)c5csc(n5)C(C(C)(O)C(C)O)NC(=O)C5CSC(=N5)/C(=C\C)NC(=O)C(C(C)O)NC(=O)c5csc(n5)C3(CC2)NC(=O)C(C)NC(=O)C(=C)NC(=O)C(C)NC(=O)C(C(C)C)NC2C=Cc3c(C(C)O)cc(nc3C2O)C(=O)OC4C)n1)C(=O)NC(C)C(N)=O (stereo not shown) [Compound of Formula I(b)]
E. faecium
  Minimal Inhibitory Concentration: 2 µg/mL
[1]; [4]
  Solubility: Soluble
[1]; in water
  Solubility: insoluble
M. tuberculosis H37Rv; 0.5 μg/mL
  % reduction in RLU: 28.87%
M. tuberculosis H37Rv; 5 μg/mL
  % reduction in RLU: 54.83%
M. tuberculosis H37Rv; 10 μg/mL
  % reduction in RLU: 76.73%
S. aureus; [5]
  Minimal Inhibitory Concentration: 0.25 to 0.5 µg/mL
S. aureus; [6]
  Minimal Inhibitory Concentration: 2 µg/mL

## C=C(NC(=O)C(=C)NC(=O)c1csc(C2=NC3c4csc(n4)C4NC(=O)c5csc(n5)C(C(C)(O)C(C)O)NC(=O)C5CSC(=N5)/C(=C\C)NC(=O)C(C(C)O)NC(=O)c5csc(n5)C3(CC2)NC(=O)C(C)NC(=O)C(=C)NC(=O)C(C)NC(=O)C(C(C)C)NC2C=Cc3c(C(C)O)cc(nc3C2O)C(=O)OC4C)n1)C(N)=O (stereo not shown) [Compound of Formula I(a)]
[2]
  MIC: 0.125 µg/mL
Bacillus cereus (121)
  MIC: 0.031 µg/mL
[3]
  MIC: 0.031 µg/mL
E. faecium; E. faecium C1 VRE 26
  MIC: 0.25 µg/mL
E. faecium; E. faecium C1 VRE 27
  MIC: 0.25 µg/mL
E. faecium; E. faecium C1 VRE 28
  MIC: 0.125 µg/mL
E. faecium; E. faecium C1 VRE 31
  MIC: 0.5 µg/mL
E. faecium; E. faecium C1 VRE 33
  MIC: 0.125 µg/mL
E. faecium; E. faecium C1 VRE 34
  MIC: 0.25 µg/mL
E. faecium; E. faecium KEM VRE 1
  MIC: 0.25 µg/mL
E. faecium; E. faecium KEM VRE 2
  MIC: 0.5 µg/mL
E. faecium; E. faecium KEM VRE 3
  MIC: 0.25 µg/mL
E. faecium; E. faecium KEM VRE 4
  MIC: 0.5 µg/mL
E. faecium; E. faecium KEM VRE 5
  MIC: 0.25 µg/mL
E. faecium; E. faecium R-2 (VRE) (Table 4)
  MIC: 0.25 µg/mL
E. faecium
  Minimal Inhibitory Concentration: 0.125 µg/mL
E. faecium; Enterococcus faecium, VSE (322)
  MIC: 0.125 µg/mL
[1]; [4]
  Solubility: Soluble
[1]; in water
  Solubility: insoluble
S. epidermidis; S. epidermidis 823, Teicho^R, 230
  MIC: 0.25 µg/mL
S. epidermidis; S. epidermidis 2361 W, 246
  MIC: 0.25 µg/mL
S. epidermidis; S. epidermidis 4264 I (1) W, 247
  MIC: 0.125 µg/mL
S. epidermidis; S. epidermidis 6098, Erythro^R, 233
  MIC: >1 µg/mL
S. epidermidis; S. epidermidis 6729 II W, Erythro^R, 236
  MIC: 0.125 µg/mL
S. epidermidis; S. epidermidis Pat 01 IV, 251
  MIC: 0.25 µg/mL
M. tuberculosis H37Rv; 0.5 μg/mL
  % reduction in RLU: 36.36%
M. tuberculosis H37Rv; 5 μg/mL
  % reduction in RLU: 77.17%
M. tuberculosis H37Rv; 10 μg/mL
  % reduction in RLU: 83.76%
S. aureus; [5]
  Minimal Inhibitory Concentration: 0.064 to 0.125 µg/mL
S. aureus; S. aureus 209 P, MSSA (Table 4)
  MIC: 0.063 µg/mL
S. aureus; S. aureus 503, MRSA, 62
  MIC: >1 µg/mL
S. aureus; S. aureus 789, MRSA, 64
  MIC: >1 µg/mL
S. aureus; S. aureus ATCC 33591, MRSA
  MIC: 0.125 µg/mL
S. aureus; S. aureus C1 MRSA 2
  MIC: 0.25 µg/mL
S. aureus; S. aureus C1 MRSA 3
  MIC: 0.25 µg/mL
S. aureus; S. aureus C1 MRSA 5
  MIC: 0.25 µg/mL
S. aureus; S. aureus C1 MRSA 7
  MIC: 0.125 µg/mL
S. aureus; S. aureus C1 MRSA 8
  MIC: 0.25 µg/mL
S. aureus; S. aureus C1 MRSA 9
  MIC: 0.25 µg/mL
S. aureus; S. aureus C1 MRSA 10
  MIC: 0.25 µg/mL
S. aureus; S. aureus C1 MRSA 13
  MIC: 0.25 µg/mL
S. aureus; S. aureus C1 MRSA 16
  MIC: 0.25 µg/mL
S. aureus; S. aureus C1 MRSA 17
  MIC: 0.125 µg/mL
S. aureus; S. aureus C1 MRSA 20
  MIC: 0.125 µg/mL
S. aureus; S. aureus C1 MRSA 21
  MIC: 0.125 µg/mL
S. aureus; S. aureus C1 MRSA 22
  MIC: 0.25 µg/mL
S. aureus; S. aureus C1 MRSA 23
  MIC: 0.016 µg/mL
S. aureus; S. aureus C1 MRSA 24
  MIC: 0.25 µg/mL
S. aureus; S. aureus C1 MRSA 25
  MIC: 0.15 µg/mL
S. aureus; [6]
  Minimal Inhibitory Concentration: 0.125 µg/mL
S. aureus; S. aureus E710, MRSA (Table 4)
  MIC: 0.125 µg/mL
S. aureus; S. aureus E712, MRSA Erythro^R, 59
  MIC: 0.25 µg/mL
S. aureus; S. aureus KEM MRSA 1
  MIC: 0.25 µg/mL
S. aureus; S. aureus KEM MRSA 2
  MIC: 0.25 µg/mL
S. aureus; S. aureus KEM MRSA 3
  MIC: 0.25 µg/mL
S. aureus; S. aureus KEM MRSA 4
  MIC: 0.125 µg/mL
S. aureus; S. aureus KEM MRSA 5
  MIC: 0.125 µg/mL
S. aureus; S. aureus MRSA 3 lilavati
  MIC: 0.125 µg/mL
S. aureus; S. aureus Misk MRSA 35
  MIC: 0.125 µg/mL
S. aureus; S. aureus Misk MRSA 37
  MIC: 0.125 µg/mL
S. aureus; S. aureus Misk MRSA 38
  MIC: 0.125 µg/mL
S. aureus; S. aureus SG 511, MRSA, 63
  MIC: 1 µg/mL
